This is an account of results in US20040191239A1, “Treatment and prevention of reactive oxygen metabolite-mediated cellular damage” (priority 1999, published 2004).

Series [1] is described as follows: Histamine administration time: efficacy and side effects. As to conditions: administered over longer than about 30 minutes.
The test system of series [2] is ROMs. Conditions: predictive example; about 10 μg/kg/day subcutaneous as in Example 3. The method, then: Histamine, a H2-receptor agonist, at approximately 10 μg/kg/day, in a pharmaceutically acceptable form is introduced by subcutaneous injection into a subject experiencing or about to experience MI. The above procedure is repeated daily for 7 days.
Histamine is administered to a patient presenting subendocardial myocardial infarction, as described in Example 3.

The test system of series [3] is HCV. Conditions: cited from earlier work.
The target of series [4] is NADPH oxidase (Homo sapiens, UniProt P04839). Conditions: substrate of the membrane-bound oxidase; cited from earlier work.
The test system of series [5] is brain tissue and cerebral vessels. Conditions: cited from earlier work.
The conditions of series [6]: cited from earlier work.

Consider `NCCc1c[nH]cn1` [Histamine, histamine], for which, in series [1], the efficacy entry is “decreased or lack of efficacy”. Further, the “release or production of ROMs” value in series [2] was “prevention of the release or production of ROMs”.
With alpha-interferon, the “effectiveness in patients with HCV” value in series [3] (chronic HCV infection) is “minimally effective”. Besides, in series [3] (in vivo), the “patients experiencing flu-like symptoms” value is 60-80% and the “responding patients relapsing to a more progressive disease state” value was “approximately 70%”.
As for `NC(=O)C1=CN([C@@H]2O[C@H](COP(=O)(O)OP(=O)(O)OC[C@H]3O[C@@H](n4cnc5c(N)ncnc54)[C@H](O)[C@@H]3O)[C@@H](O)[C@H]2O)C=CC1` [NADH], the Km in series [4] is 450 µM.
As to `NC(=O)C1=CN([C@@H]2O[C@H](COP(=O)(O)OP(=O)(O)OC[C@H]3O[C@@H](n4cnc5c(N)ncnc54)[C@H](OP(=O)(O)O)[C@@H]3O)[C@@H](O)[C@H]2O)C=CC1` [NADPH], the Km in series [4] was 45 µM.
For `C#CCN(C)[C@H](C)Cc1ccccc1` [selegiline, L-deprenyl], in series [5] (brain tissue and cerebral vessels), the NO production entry was “rapid increases in NO production”. In addition, the “protection of the vascular endothelium” value in series [5] (toxic effects of amyloid-beta peptide) was “protected the vascular endothelium”. In series [6] (173 people, after six months), the memory entry was “improved significantly”. In addition, the “effect on the benefits of tacrine (Cognex)” value in series [6] (another study, combination with tacrine) is “enhanced the benefits of tacrine”.

The term Km denotes the concentration of substrate that gives half-maximal velocity.
